The record followed here is ChEMBL document CHEMBL2331298, “Flavonoids as receptor tyrosine kinase FLT3 inhibitors” (Bioorg Med Chem Lett, 2013).

Molecules are shown by their SMILES.

In experiment [1] the target is T1, Receptor-type tyrosine-protein kinase FLT3 (Homo sapiens, UniProt P36888).
T1 sequence (P36888 whole entry): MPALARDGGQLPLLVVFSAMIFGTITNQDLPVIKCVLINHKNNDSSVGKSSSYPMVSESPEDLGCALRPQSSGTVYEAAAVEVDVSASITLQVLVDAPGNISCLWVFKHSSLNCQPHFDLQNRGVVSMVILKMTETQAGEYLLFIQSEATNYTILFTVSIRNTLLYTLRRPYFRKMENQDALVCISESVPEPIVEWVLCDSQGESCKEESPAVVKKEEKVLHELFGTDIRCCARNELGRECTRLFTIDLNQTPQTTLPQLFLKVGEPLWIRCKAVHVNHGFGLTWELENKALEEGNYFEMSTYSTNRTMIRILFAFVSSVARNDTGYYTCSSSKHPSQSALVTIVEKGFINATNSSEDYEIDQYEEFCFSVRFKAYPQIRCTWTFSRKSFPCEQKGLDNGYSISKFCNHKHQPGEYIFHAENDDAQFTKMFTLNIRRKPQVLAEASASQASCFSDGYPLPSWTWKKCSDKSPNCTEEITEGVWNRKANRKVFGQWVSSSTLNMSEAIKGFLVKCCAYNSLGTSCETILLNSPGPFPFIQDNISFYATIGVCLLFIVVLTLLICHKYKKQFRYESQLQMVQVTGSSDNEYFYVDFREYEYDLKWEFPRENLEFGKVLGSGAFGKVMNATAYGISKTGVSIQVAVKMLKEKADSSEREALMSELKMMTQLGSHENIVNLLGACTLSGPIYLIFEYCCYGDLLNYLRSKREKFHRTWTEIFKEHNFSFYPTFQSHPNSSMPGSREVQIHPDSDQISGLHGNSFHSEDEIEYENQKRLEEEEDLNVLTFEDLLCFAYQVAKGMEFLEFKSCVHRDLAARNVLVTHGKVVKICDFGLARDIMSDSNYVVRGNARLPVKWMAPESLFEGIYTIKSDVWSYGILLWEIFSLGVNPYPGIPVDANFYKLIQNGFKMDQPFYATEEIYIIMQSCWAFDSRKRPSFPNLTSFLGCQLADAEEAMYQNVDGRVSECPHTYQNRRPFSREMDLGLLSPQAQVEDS
Kind of experiment: Inhibition of recombinant FLT3 (unknown origin) by TR-FRET assay. (Time-resolved FRET reads energy transfer from a long-lived donor to a nearby acceptor.)

Experiment [2] can be described thus: Cytotoxicity against human RS4:11 cells harboring wild type FLT3 after 72 hrs by tetrazolium based Ez CyTox cell viability assay. In kind it is functional. The settings on record: RS4-11, 72 h.
Experiment [3] deals with MV4-11. Kind of experiment: Cytotoxicity against human MV4-11 cells harboring FLT3 mutation after 72 hrs by tetrazolium based Ez CyTox cell viability assay. In kind it is functional. The conditions noted are these: MV4-11, 72 h.
In experiment [4] the test system is MV4-11. Kind of experiment: Cell cycle arrest in human MV4-11 cells harboring FLT3 mutation assessed as accumulation at G1 phase at 0.1 uM after 48 hrs using propidium iodide staining by flow cytometry (reference value: 69.69%). Format: functional.
Experiment [5] relates to MV4-11. Kind of experiment: Cell cycle arrest in human MV4-11 cells harboring FLT3 mutation assessed as accumulation at S phase at 0.1 uM after 48 hrs using propidium iodide staining by flow cytometry (reference value: 15.48%). Format: functional.
The subject of experiment [6] is MV4-11. Kind of experiment: Cell cycle arrest in human MV4-11 cells harboring FLT3 mutation assessed as accumulation at S phase at 1 uM after 48 hrs using propidium iodide staining by flow cytometry (reference value: 15.48%). In kind it is functional. On the technique in general: Flow cytometry measures light scatter and fluorescence of single cells or particles in a stream.

For experiment [7], the system named is MV4-11. Kind of experiment: Cell cycle arrest in human MV4-11 cells harboring FLT3 mutation assessed as accumulation at G2/M phase at 1 uM after 48 hrs using propidium iodide staining by flow cytometry (reference value: 11.61%). Format: functional.
Experiment [8] concerns MV4-11. Kind of experiment: Cell cycle arrest in human MV4-11 cells harboring FLT3 mutation assessed as accumulation at G1 phase at 10 uM after 48 hrs using propidium iodide staining by flow cytometry (reference value: 69.69%). Format: functional.
Experiment [9] has as its system MV4-11. Kind of experiment: Cell cycle arrest in human MV4-11 cells harboring FLT3 mutation assessed as accumulation at S phase at 10 uM after 48 hrs using propidium iodide staining by flow cytometry (reference value: 15.48%). In kind it is functional.
Experiment [10] has as its system MV4-11. Kind of experiment: Cell cycle arrest in human MV4-11 cells harboring FLT3 mutation assessed as accumulation at sub-G1 phase at 10 uM after 48 hrs using propidium iodide staining by flow cytometry (reference value: 3.86%). In kind it is functional.
Experiment [11] has as its system MV4-11. Kind of experiment: Cell cycle arrest in human MV4-11 cells harboring FLT3 mutation assessed as accumulation at sub-G1 phase at 0.1 uM after 48 hrs using propidium iodide staining by flow cytometry (reference value: 3.86%). In kind it is functional.
In experiment [12] the test system is MV4-11. Kind of experiment: Cell cycle arrest in human MV4-11 cells harboring FLT3 mutation assessed as accumulation at G2/M phase at 0.1 uM after 48 hrs using propidium iodide staining by flow cytometry (reference value: 11.61%). In kind it is functional.
Experiment [13] has as its system MV4-11. Kind of experiment: Cell cycle arrest in human MV4-11 cells harboring FLT3 mutation assessed as accumulation at G1 phase at 1 uM after 48 hrs using propidium iodide staining by flow cytometry (reference value: 69.69%). Format: functional.
Experiment [14] concerns MV4-11. Kind of experiment: Cell cycle arrest in human MV4-11 cells harboring FLT3 mutation assessed as accumulation at G2/M phase at 10 uM after 48 hrs using propidium iodide staining by flow cytometry (reference value: 11.61%). Format: functional.
The test system of experiment [15] is MV4-11. Kind of experiment: Cell cycle arrest in human MV4-11 cells harboring FLT3 mutation assessed as accumulation at sub-G1 phase at 1 uM after 48 hrs using propidium iodide staining by flow cytometry (reference value: 3.86%). Format: functional.

In the case of `O=c1c(O)c(-c2ccc(O)c(O)c2)oc2cc(O)cc(O)c12` [QUERCETIN], the half-inhibitory concentration (IC50) in [1] is 0.59 µM. Further, the 50% growth inhibitory concentration (GI50) in experiment [2] is 21.6 µM; with MV4-11 [3] it was 13.1 µM.

Consider `O=c1cc(-c2ccc(O)c(O)c2)oc2cc(O)cc(O)c12` [LUTEOLIN], for which the Activity was found to be 71.25% in the experiment with MV4-11 [4]; 10.5% with MV4-11 [5]; 12.8% in the experiment with MV4-11 [6]; 4.2% in the experiment with MV4-11 [7]; 66.68% with MV4-11 [8]; 2.09% with MV4-11 [9]. Besides, the Activity in the experiment on MV4-11 [10] amounted to 30.76%; in the experiment on MV4-11 [11], 13.71%; in the experiment on MV4-11 [12] it was 4.9%; with MV4-11 [13] it was 67.08%; in the experiment on MV4-11 [14], 0.51%; in the experiment with MV4-11 [15] it was 16.42%. Also, in experiment [1], the IC50 came out at 0.83 µM. Also, the concentration for 50% growth inhibition (GI50) in experiment [2] is 7.25 µM; with MV4-11 [3], 1.76 µM.

For `O=C1c2c(O)cc(O)cc2O[C@H](c2ccc(O)cc2)[C@H]1O` [DIHYDROKAEMPFEROL], the IC50 in experiment [1] was above 10 µM.

`O=c1c(O)c(-c2ccccc2)oc2cc(O)cc(O)c12` [GALANGIN]: the IC50 in experiment [1] is above 10 µM.

`O=C1C[C@@H](c2ccc(O)cc2)Oc2cc(O)cc(O)c21` [NARINGENIN]: the concentration for half-maximal inhibition (IC50) in [1] was above 10 µM.

With `O=c1c(O)c(-c2ccc(O)cc2)oc2cc(O)cc(O)c12` [KAEMPFEROL], the IC50 in [1] worked out at 2.32 µM. In addition, the results for the GI50 (in experiment [2]; with MV4-11 [3]) were above 50 µM and 3.34 µM, respectively.

With `O=c1cc(-c2ccc(O)cc2)oc2cc(O)c(O)c(O)c12` [SCUTELLAREIN], the IC50 in experiment [1] was above 10 µM.

Regarding `O=c1cc(-c2ccccc2)oc2cc(O)cc(O)c12` [CHRYSIN], the IC50 in [1] is above 10 µM.

Take `O=c1cc(-c2ccc(O)cc2)oc2cc(O)cc(O)c12` [APIGENIN]: the half-maximal inhibitory concentration (IC50) in experiment [1] was 1.45 µM. The GI50 in experiment [2] was determined as 27.9 µM; with MV4-11 [3], 2.81 µM.

For the molecule `O=c1c(OC2O[C@H](CO)[C@H](O)[C@H](O)[C@H]2O)c(-c2ccc(O)c(O)c2)oc2cc(O)cc(O)c12` (stereo not given in full), the IC50 in experiment [1] was above 10 µM.

For `O=C1C[C@@H](c2ccc(O)c(O)c2)Oc2cc(O)cc(O)c21` [ERIODICTYOL], the IC50 in experiment [1] is above 10 µM.

Take `O=c1c(O)c(-c2cc(O)c(O)c(O)c2)oc2cc(O)cc(O)c12` [MYRICETIN]: in experiment [1], the IC50 worked out at 1.69 µM. The GI50 (in experiment [2]; in the experiment on MV4-11 [3]) was above 50 µM throughout.

Turning to `COc1c(O)cc2oc(-c3ccccc3)cc(=O)c2c1O` [OROXYLIN A], the IC50 in experiment [1] is 1.48 µM. For the same molecule, the values for the concentration for 50% growth inhibition (GI50) (in experiment [2]; in the experiment with MV4-11 [3]) were 40 µM and 5.59 µM, respectively.

As to `O=c1c(O[C@@H]2O[C@H](CO)[C@@H](O)[C@H](O)[C@H]2O)c(-c2ccc(O)c(O)c2)oc2cc(O)cc(O)c12` [ISOQUERCETIN], the concentration for half-maximal inhibition (IC50) in experiment [1] is above 10 µM.

As to `O=c1c(OC2O[C@H](CO)[C@@H](O)[C@H](O)[C@@H]2O)c(-c2ccc(O)c(O)c2)oc2cc(O)cc(O)c12` (stereo not given in full), the half-maximal inhibitory concentration (IC50) in experiment [1] is above 10 µM.

For the molecule `O=c1cc(-c2ccccc2)oc2cc(O)c(O)c(O)c12` [BAICALEIN], the IC50 in experiment [1] was above 10 µM.

In general, IC50 refers to the concentration that gives 50% inhibition. As a reminder, the GI50 is the concentration at which growth is held to half of that of the control.
